Several values for one entry are separate records, joined by “and”; a condition that tells them apart may be missing. Equal values may be shown once. Read-outs that look alike come from different tables or passages of the source.
Experiments:
[1] = test system: FCR-3 Plasmodium falciparum; parameters: method as in doi:10.1016/S0040-4020(98)00818-7; conditions: chloroquine-resistant FCR-3 strain; cited from earlier work
[2] = test system: P. falciparum W2; conditions: drug-resistant W2 strain; Figure 1; cited from earlier work
[3] = test system: P. falciparum 3D7; assay: SYBR Green based parasite proliferation assay, drug-sensitive 3D7 strain; format: cell-based, Plasmodium falciparum
[4] = test system: P. falciparum Dd2; conditions: Wood group, cited from earlier work
[5] = test system: P. falciparum HB3; conditions: Wood group, cited from earlier work
[6] = test system: P. falciparum Dd2; assay: SYBR Green based parasite proliferation assay, chloroquine-resistant Dd2 strain; format: cell-based, Plasmodium falciparum
[7] = microsomes; cited from earlier work
[8] = in vitro; conditions: mouse, microsomes, pH 7.4
[9] = Microsomal stability assay, human liver microsomes; format: in vitro ADME; conditions: pH 7.4
Method: Reference compound Ketanserin
Sample size Duplicates (n=2)
Bioanalytical method LC-MS/MS
Microsomal Liver Weight per Hepatic
Species Protein Kilogram of Body Scaling Factora Blood Flow
per Gram of Liver Weight (mL/min/kg)
Test Article Species Percent Remaining (%) T1/2 Clint
1. Historic data of ketanserin:
Detection method UPLC-MS/MS-29(API6500+)
Internal standard (s) Osalmid, imipramine
MS conditions Positive ion, ESI
Mobile phase A: 0.025%FA/1mM NH4OAc/H2O
2. Reference compouds(Ketanserin) and test compounds spiking solution: […]

[10] = microsomes; cited from earlier work; remark: listed apart in the source
[11] = drug-sensitive 3D7 strain, 72 h incubation, n = 3, read-out: IC50
[12] = drug-resistant Dd2 strain, 72 h incubation, n = 3, read-out: IC50

Molecule: 6-hydroxy-kalihinene [compound 3]
- IC50 [1]: 80 nM

Molecule: 7,20-diisocyanoadociane [compound 4]
- IC50 [2]: 13 nM

Molecule: 10-isocyano-4-cadinene [(±)-15]
- IC50 ([3]; 3D7 strain): 0.1631 µg/mL
- IC50 [3, 11]: 0.705 µM
- IC50 ([4]; Dd2 (chloroquine-resistant)): 2200 nM
- IC50 ([5]; HB3 (chloroquine-sensitive)): 2200 nM
- IC50 ([6]; Dd2 strain): 0.057 µg/mL
- IC50 [6, 12]: 0.247 µM

Molecule: [C-]#[N+]C1C2C(C(C)C)CCC(C)([N+]#[C-])C2CCC1(C)O (racemic) [(±)-22]
- IC50 ([4]; Dd2): 80 nM
- IC50 ([5]; HB3): 80 nM

Molecule: CCN(CC)CCCC(C)Nc1ccnc2cc(Cl)ccc12 (stereo not shown) [Chloroquine]
- IC50 ([3]; Plasmodium falciparum, 3D7, read-out: Chloroquine IC50 [µM], 3D7 strain, antimalarial standard run alongside each compound): 0.0063 µM
- IC50 ([3]; read-out: Chloroquine IC50, 3D7 strain, antimalarial standard run alongside each compound): 0.0052 µM and 0.0066 µM and 0.0059 µM and 0.0091 µM and 0.0089 µM and 0.0058 µM and 0.0061 µM
- IC50 ([6]; Plasmodium falciparum, DD2, read-out: Chloroquine IC50 [µM], Dd2 strain, antimalarial standard run alongside each compound): 0.0275 µM
- IC50 ([6]; read-out: Chloroquine IC50, Dd2 strain, antimalarial standard run alongside each compound): 0.0322 µM and 0.0337 µM and 0.0497 µM and 0.0521 µM

Molecule: O=C(c1ccc(F)cc1)C1CCN(CCn2c(=O)[nH]c3ccccc3c2=O)CC1 [ketanserin]
- T1/2 (Human), historic data [7]: 39.69 ± 6.36 min
- CLint scaled at 1 µM [8]: 267 mL/min/kg
- half-life at 1 µM [8]: 20.4 min
- remaining at 0 h, 1 µM [8]: 100%
- remaining at 5 min, 1 µM [8]: 79.9%
- remaining at 0.25 h, 1 µM [8]: 55.5%
- remaining at 0.5 h, 1 µM [8]: 32.9%
- remaining at 0.75 h, 1 µM [8]: 21.7%
- CLint scaled at 1 µM ([9]; human, microsomes): 40 mL/min/kg
- remaining at 5 min, 1 µM ([9]; human, microsomes): 88.4%
- remaining at 0.25 h, 1 µM ([9]; human, microsomes): 77%
- remaining at 0.5 h, 1 µM ([9]; human, microsomes): 62.5%
- remaining at 0.75 h, 1 µM ([9]; human, microsomes): 47.3%
- half-life at 1 µM ([9]; human liver microsomes 0.5 mg/mL, 1 µM, 37°C): 43.4 min
- T1/2 (Mouse), historic data [10]: 18.27 ± 3.89 min

Molecule: kalihinol A [compound 1]
- IC50 [1]: 1.2 nM

Molecule: kalihinol B [compound 2]
- IC50 ([3]; 3D7 strain): 0.0033 µg/mL
- IC50 [3, 11]: 0.0084 µM
- IC50 ([6]; Dd2 strain): 0.0018 µg/mL
- IC50 [6, 12]: 0.0046 µM
